From patent US9839618B2, “Compositions and methods relating to proliferative diseases” (The Penn State Research Foundation, priority 2010, dated 2017)
Entries after “also recorded” stand apart in the source; their conditions may differ.

Tests used:
[1] = system: PI3K/Akt signaling pathway; experiment: Western blot, PI3K/Akt pathway; assay type: cell-based, human; conditions: for PI3K/AKT pathway (pAKT, pPRAS40, cyclin D1): Example 8, 24 hours, actives 3-5 μmol/L, inactives 30-50 μmol/L
Procedure: (§1) For Western blot analysis, cell lysates are harvested by addition of RIPA lysis buffers containing 25 mM Tris.HCl pH 7.6, 150 mM NaCl, 1% NP-40, 1% sodium deoxycholate, 0.1% SDS, 10 mM EDTA, 1 mM sodium orthovanadate, 0.1 mM sodium molybdate, 1 mM phenylmethylsulfonyl fluoride, 20 μg/mL aprotinin, and 5 μg/mL leupeptin. The cell lysates are harvested and processed as described in Madhunapantula, S. V. et al., Cancer Res, 2007, 67:3626-36. Treatment conditions: 1-1.5×10^6 melanoma cells are plated in 100 mm culture dishes, 48 h later, treated with leelamine (3-6 μmol/L) for 3 to 24 hours. Protein lysates are collected for Western blotting. The blots are probed with antibodies according to each supplier's recommendations: antibodies to total Akt, phospho-Akt (Ser473), total PRAS40, phospho-PRAS40 (Thr246), total CREB, phospho-CREB (Ser133), phospho-p70 S6 kinase (Thr389), total Erk1/2, phospho-Erk1/2 (Thr202/Tyr 204), total CDK2, phospho-CDK2 (Thr160), phospho-Rb (Ser807/811), total Stat, phospho-Stat1 (Tyr701), Phospho-Stat-2(Tyr690), Phospho-Stat3(Ser727), phospho-Stat3(Tyr705) and cleaved PARP from Cell Signaling Technology (Danvers, Mass.); total PRAS40 from Invitrogen (Carlsbad, Calif.); cyclin D1, Bcl-2, α-enolase and secondary antibodies conjugated with horseradish peroxidase from Santa Cruz Biotechnology (Santa Cruz, Calif.). Immunoblots are developed using the enhanced chemiluminescence (ECL) detection system (Thermo Fisher Scientific, Rockford, Ill.). Intensity of protein bands is quantified using ImageJ software.
(§2) For Western blot analysis, 1×10^6 melanoma cells are plated in 100 mm culture dishes, 48 hours later, treated with empty liposomes or Nanolipolee-007 (3-6 μmol/L) for 3 to 24 hours. Protein lysates collected for Western blotting. The cell lysates are harvested in an RIPA lysis buffer containing protease and phosphatases inhibitors (Pierce Biotechnology, Rockford, Ill.). Blots are probed with antibodies according to each supplier's recommendations: antibodies to total Akt, phospho-Akt (Ser473), total PRAS40, phospho-PRAS40 (Thr246), total Bad, pBad (Ser 112) total Erk1/2, phospho-Erk1/2 (Thr202/Tyr 204), total CDK2, phospho-CDK2 (Thr160), phospho-Rb (Ser807/811), total Stat, phospho-Stat3 (Tyr705), caspase-3 and cleaved PARP from Cell Signaling Technology (Danvers, Mass.); total PRAS40 from Invitrogen (Carlsbad, Calif.); cyclin D1, α-enolase and secondary antibodies conjugated with horseradish peroxidase from Santa Cruz Biotechnology (Santa Cruz, Calif.). Immunoblots are developed using the enhanced chemiluminescence (ECL) detection system (Thermo Fisher Scientific, Rockford, Ill.). Intensity of protein bands is quantified using ImageJ software.
(§3) Cell lysates are harvested by addition of RIPA lysis buffers containing 25 mM Tris*HCl pH 7.6, 150 mM NaCl, 1% NP-40, 1% sodium deoxycholate, 0.1% SDS, 10 mM EDTA, 1 mM sodium orthovanadate, 0.1 mM sodium molybdate, 1 mM phenylmethylsulfonyl fluoride, 20 μg/mL aprotinin, and 5 μg/mL leupeptin. The cell lysates are harvested and processed as described. […] Protein lysates collected for Western blotting. […] Intensity of protein bands is quantified using ImageJ software. […]

STAT signaling pathway = experiment: Western blot, STAT pathway; assay type: cell-based, human; conditions: for STAT3 pathway (pSTAT3): Example 8, 24 hours, actives 3-5 μmol/L, inactives 30-50 μmol/L
Procedure: as §1, §2, §3

MAPK signaling pathway = experiment: Western blot, MAPK pathway; assay type: cell-based, human; conditions: for MAPK pathway (pERK1/2, pCDK2): Example 8, 24 hours, actives 3-5 μmol/L, inactives 30-50 μmol/L
Procedure: as §1, §2, §3

cancer cell line = experiment: MTS assay viability IC50, A-459; assay type: cell-based; conditions: A459; Table 5; read-out: IC50 Liver (A-459)
Procedure: Dehydroabietylamine, its N-substituted derivatives and the corresponding dihydroabietylamine and its N-substituted derivatives are tested for their capability to inhibit cell growth of cancer cell lines, including melanoma (UACC 903, 1205Lu), breast (MCF-7), fibrosarcoma (HT-1080), colon (Caco-2), and prostate (PC-3) cancer cell lines. Viability and IC50 of normal human fibroblasts and cell lines from melanoma and other malignancies following treatment with all the agents are measured using the MTS assay (Promega, Madison, Wis.). Human fibroblast FF2441 cells, metastatic melanoma cell lines 1205 Lu and UACC 903 as well as cancer cell lines representing sarcoma (HT-1080), prostate (PC-3, LNCaP), breast (MCF-7) and lung (A-549) are maintained in DMEM (Invitrogen, Carlsbad, Calif.) supplemented with 10% FBS (Hyclone, Logan, Utah) in a 5% CO2 atmosphere, humidified 37° C. incubator. 5×10^3 cells per well in 100 μL of media are plated and grown in a 96-well plate for 48 to 72 h and treated with either DMSO vehicle control or 0.62 to 40 μmol/L for 24, 48 or 72 h. IC50 values for each compound in […] for respective cell lines are measured from three independent experiments using GraphPad Prism version 4.01 (GraphPad Software, La Jolla, Calif.). FIG. 52 is a graph showing IC50 values for leelamine and compounds 4a, 4b and 5a in treated fibroblasts (FF2441) compared to melanoma cells. Selectivity ratio here is defined as ratio of activity against fibroblasts compared to activity against melanoma cells. Leelamine is relatively selective with a ratio of >6 and >4 for UACC903 and 1205Lu melanoma cells. The selectivity ratio of compound 4a is ˜4 and ˜3 for UACC903 and 1205Lu and for compound 4b is ˜4 for both cell lines. The selectivity ratio of compound 5a is ˜4 for UACC903 and >2 for 1205Lu cells.

[2] = 3 to 6 μmol/L for 3 to 24 hours, UACC 903 and 1205 Lu

IC50 (cancer cell line) [µM] | Compound | PI3K/AKT pathway (pAKT, pPRAS40, cyclin D1) [1] | STAT3 pathway (pSTAT3) (STAT signaling pathway) | MAPK pathway (pERK1/2, pCDK2) (MAPK signaling pathway) | PI3 kinase pathway signaling [1, 2] | STAT pathway signaling (STAT signaling pathway; [2]) | MAP kinase pathway signaling (MAPK signaling pathway; [2])
> 100 | CC(C)C1=CC2=CCC3[C@](C)(CCC[C@@]3(C)C(=O)O)C2CC1 (stereo partly drawn) [Abietic acid, (1R,4aR)-1,4a-dimethyl-7-(propan-2-yl)-1,2,3,4,4a,4b,5,6,10,10a-decahydrophenanthrene-1-carboxylic acid, reference compound] | unable to affect | unable to affect | unable to affect |  |  | 
9.27 ± 1.43 | CC(C)c1ccc2c(c1)CCC1[C@](C)(CN)CCC[C@]21C (stereo partly drawn) [Leelamine, [(1R,4aS)-1,4a-dimethyl-7-(propan-2-yl)-1,2,3,4,4a,9,10,10a-octahydrophenanthren-1-yl]methanamine] | highly effective in abolishing activation of AKT pathway; also recorded: decrease pAKT, pPRAS40 and cyclin D1 | completely blocked pSTAT3 expression; also recorded: decrease pSTAT3 expression at all doses | blocks activation of ERK1/2; also recorded: Dose dependent reduction of pERK1/2 and pCDK2 | decrease activity | decrease activity | decrease activity
9.7 ± 1.34 | CC(C)c1ccc2c(c1)CCC1[C@](C)(CNC(=O)C(F)(F)F)CCC[C@]21C (stereo partly drawn) [Compound 5a, N-{[(1R,4aS)-1,4a-dimethyl-7-(propan-2-yl)-1,2,3,4,4a,9,10,10a-octahydrophenanthren-1-yl]methyl}-2,2,2-trifluoroacetamide] | decrease pAKT, pPRAS40 and cyclin D1 | decrease pSTAT3 expression at all doses | Dose dependent reduction of pERK1/2 and pCDK2 |  |  | 
19.1 ± 3.87 | CC(C)C1=CC2=CCC3[C@](C)(CN)CCC[C@]3(C)C2CC1 (stereo partly drawn) [Compound 4a, {[(1R,4aR)-1,4a-dimethyl-7-(propan-2-yl)-1,2,3,4,4a,4b,5,6,10,10a-decahydrophenanthren-1-yl]methyl}amine] | decrease pAKT, pPRAS40 and cyclin D1 | decrease pSTAT3 expression at all doses | Dose dependent reduction of pERK1/2 and pCDK2 |  |  | 
